Test results taken from publication PMC6273353, “Design, Synthesis and Evaluation of Novel Tacrine-Ferulic Acid Hybrids as Multifunctional Drug Candidates against Alzheimer’s Disease” (Molecules, 2016).

Tests used:
BuChE = molecular target: T1, BuChE (Homo sapiens, UniProt P06276); experiment: biochemical; conditions: mean ± SD of three independent experiments
T1 construct: purchased Sigma-Aldrich
Experimental: (§1) Five different concentrations (10^−4–10^−9 M) of each compound were tested for the inhibitory activity for AChE and BuChE. 10 μL 0.86 U/mL AChE or BuChE, 60 μL 0.1 M phosphate buffer (pH 8.0), and 10 μL test compounds were incubated together at 37 °C for 10 min. An amount of 20 μL 10 mmol/L […] or butylthicoline iodide was added and the solution was incubated at 37 °C for 10 min again. Then 20 μL 5 mmol/L 5,5′-dithiobis-(2-nitrobenzoic acid) (DTNB) and 30 μL 1% sodium dodecyl sulfatesodium salt (SDS) were added. […] Each concentration was analyzed three times, and the IC50 value was calculated from the concentration-inhibition response curve on logarithmic scale.

AChE [1] = molecular target: T2, AChE (Homo sapiens, UniProt P22303); experiment: biochemical; conditions: for Selectivity Index: Selectivity index = IC50 (BuChE)/IC50 (AChE); for IC50: mean ± SD of three independent experiments
T2 construct: purchased Sigma-Aldrich
T2 sequence (P22303 32-614): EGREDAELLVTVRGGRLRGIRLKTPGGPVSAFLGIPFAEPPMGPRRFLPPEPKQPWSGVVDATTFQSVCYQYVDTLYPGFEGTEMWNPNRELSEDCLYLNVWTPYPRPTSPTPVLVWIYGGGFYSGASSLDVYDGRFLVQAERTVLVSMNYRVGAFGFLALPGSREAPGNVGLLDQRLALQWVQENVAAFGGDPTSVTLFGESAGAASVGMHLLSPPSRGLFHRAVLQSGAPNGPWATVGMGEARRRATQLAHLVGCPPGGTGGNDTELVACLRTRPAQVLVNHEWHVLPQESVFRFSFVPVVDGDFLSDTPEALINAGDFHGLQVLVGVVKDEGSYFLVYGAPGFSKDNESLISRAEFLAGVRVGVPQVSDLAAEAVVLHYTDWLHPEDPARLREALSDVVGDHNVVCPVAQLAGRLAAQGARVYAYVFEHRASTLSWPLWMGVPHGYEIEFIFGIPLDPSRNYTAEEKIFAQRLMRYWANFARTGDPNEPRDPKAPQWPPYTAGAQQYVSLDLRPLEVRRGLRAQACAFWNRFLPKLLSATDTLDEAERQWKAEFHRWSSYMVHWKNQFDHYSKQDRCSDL
Experimental: as §1

Aβ (1–42) = molecular target: T3, Aβ (1–42) (Homo sapiens, UniProt P05067); experiment: Inhibition of self-induced Aβ (1–42) aggregation, thioflavin T-based fluorometric assay; type: biochemical; conditions: 20 μM compounds, 20 μM Aβ (1–42), 37 °C, 48 h; mean ± SD
T3 construct: An amount of 250 μg Aβ (1–42) was dissolved; purchased Sigma-Aldrich
T3 sequence (P05067 672-713): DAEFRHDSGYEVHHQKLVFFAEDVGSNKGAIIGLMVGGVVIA
Experimental: TFAs 8a–e were tested for their ability to inhibit self-induced Aβ (1–42) aggregation by a thioflavin T-based fluorometric assay, and curcumin and ferulic acid were used as reference compounds.
An amount of 250 μg Aβ (1–42) was dissolved in 1 mL hexafluoroisopropanol (HFIP) and lyophilizated, then dissolved in 25 μL DMSO and 150 μL 50 mM phosphate buffer saline (PBS). For the self-induced assay, 10 μL of Aβ (1–42) was incubated with 10 μL test compounds, both at a final concentration of 20 μM, at 37 °C for 48 h. Then, 40 μL PBS and 100 μL 5 μM thioflavin T (ThT) in 50 mM glycine-NaOH buffer (pH 8.5) was added. […] The percent inhibition of the self-induced aggregation due to the presence of the test compound was calculated by the following expression: 100 − (IFi/IF0 × 100) where IFi and IF0 are the fluorescence intensities with and without test compound, respectively, minus the fluorescence intensities due to the respective blanks.

Neuro-2A cells = experiment: Protective effect against Aβ-induced neurotoxicity, MTT viability assay; type: cell-based; conditions: 8d 5 or 10 μM with 10 μM Aβ (1–42), 48 h, p < 0.05
Experimental: To investigate the protective effect of 8d against Aβ-induced cytotoxicity, 8d (0, 5 or 10 μM) and 10 μM Aβ (1–42) was directly added into the medium of the Neuro-2A cells. The cells were incubated for 48 h.
Neuro-2A cell were grown in dulbecco’s modified eagle medium (DMEM) plus 1% glutamine and 10% heat-inactivated fetal bovine serum. The assays were performed in 96-well microtiter plates. Cells were treated with or without lyophilizated Aβ (1–42) (10 μM), or different concentrations of 8d (5, 10 μM) combination and incubated for 48 h. Then, 10 µL of MTT (5 mg/mL) was added to each well and incubated for four hours, and then the liquid in the wells was removed. DMSO (150 µL) was added to each well. The absorbance was recorded using a microplate reader at a wavelength of 570 nm.
Neuroprotective effect of 8d were evaluated by cells treated with 8d at the concentration of 0, 5 or 10 μM in the presence of 10 μM Aβ for 48 h; Vehicle group was treated with solvent. The cell viability was assessed using the 3-[4,5-dimethylthylthiazol-2-yl]-2,5 diphenyltetrazoliumbromide (MTT) assay. Data are from three independent experiments and are expressed as the mean ± SD values. ** p < 0.01 compared to vehicle. * p < 0.05, represents significant differences from the control group.

[2] = Cu2+-chelating properties assay by UV spectrometry; type: physicochemical; conditions: 8d 40 μM with 10, 20, 40 μM CuCl2 in MeOH, UV 220–400 nm
Experimental: In recent years, there is mounting evidence to support the theory that endogenous copper can be involved as factors or cofactors in the etiopathogenesis of AD, and modulating Cu^2+ in the brain should be to the benefit of AD treatment. The chelating effect of 8d for Cu^2+ was studied by ultra violet (UV) spectrometry with wavelength ranging from 220 to 400 nm.
The complexing studies were determined using a UV spectrophotometer (Beckman Coulter Inc., Brea, CA, USA). Compound 8d (40 µM) in methanol was mixed with 10, 20, 40 µM CuCl2, and then incubated at room temperature for 5 min. The absorption spectra were recorded from 220 nm to 400 nm after incubation.

AChE [3] = molecular target: T2, AChE; experiment: Kinetic analysis of AChE inhibition (Lineweaver-Burk); type: biochemical; conditions: Lineweaver-Burk reciprocal plots, six substrate concentrations
Experimental: Kinetic characterization of AChE was performed as the reported method using six different substrate concentrations (50, 90, 150, 266, 452, and 904 μM). An amount of 60 µL PBS, 20 µL DTNB, 10 µL AChE, and 10 µL inhibitor were mixed together and pre-incubated for 10 min, followed by the addition of 20 μL different substrate and then incubated for 15 min. After that, 30 μL 1% SDS was added. Kinetic characterization of the hydrolysis of acetylthiocholine chloride catalyzed by AChE was done spectrometrically at 415 nm. A parallel control with no inhibitor in the mixture, allowed adjusting activities to be measured.

T1 sequence (P06276 29-602): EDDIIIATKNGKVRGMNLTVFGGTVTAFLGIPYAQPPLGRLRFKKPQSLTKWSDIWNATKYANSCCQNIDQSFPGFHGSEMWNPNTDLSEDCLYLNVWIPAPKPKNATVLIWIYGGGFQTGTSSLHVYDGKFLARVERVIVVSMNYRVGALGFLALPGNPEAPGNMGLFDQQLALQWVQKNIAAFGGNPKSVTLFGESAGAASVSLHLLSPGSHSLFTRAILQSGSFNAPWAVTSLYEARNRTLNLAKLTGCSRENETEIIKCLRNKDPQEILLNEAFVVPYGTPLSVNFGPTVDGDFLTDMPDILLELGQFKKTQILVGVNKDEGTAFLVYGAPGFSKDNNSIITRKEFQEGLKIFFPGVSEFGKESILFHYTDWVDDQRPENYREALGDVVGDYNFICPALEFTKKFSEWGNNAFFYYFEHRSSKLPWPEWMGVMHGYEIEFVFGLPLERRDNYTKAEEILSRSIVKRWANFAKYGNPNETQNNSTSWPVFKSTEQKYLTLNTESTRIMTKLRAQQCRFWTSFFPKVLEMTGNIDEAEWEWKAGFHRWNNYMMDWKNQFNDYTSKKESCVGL

Row | Structure (SMILES) | IC50 (BuChE) [nM] | Selectivity Index (AChE [1]) | IC50 (AChE [1]) [nM] | inhibition at 20 µM (Aβ (1–42)) [%] | cell viability compared with Aβ-treated alone group (in words) (Neuro-2A cells) | chelating effect for Cu^2+ (in words) [2] | mechanism of AChE inhibition (AChE [3])
1 | COC(=O)/C=C/c1ccc(OCCCN2CCN(CC(=O)Nc3c4c(nc5ccccc35)CCCC4)CC2)c(OC)c1 [Compound 8b, Methyl (E)-3-(3-methoxy-4-(3-(4-(2-oxo-2-((1,2,3,4-tetrahydroacridin-9-yl)amino)ethyl)piperazin-1-yl)propoxy)phenyl)acrylate] | 120 ± 12.5 | 1.326 | 90.3 ± 7.3 | 19.5 ± 2.7 | – | – | –
2 | COC(=O)/C=C/c1ccc(OCCN2CCN(CC(=O)Nc3c4c(nc5ccccc35)CCCC4)CC2)c(OC)c1 [Compound 8a, Methyl (E)-3-(3-methoxy-4-(2-(4-(2-oxo-2-((1,2,3,4-tetrahydroacridin-9-yl)amino)ethyl)piperazin-1-yl)ethoxy)phenyl)acrylate] | 203 ± 35.7 | 0.660 | 306 ± 12.4 | 26.1 ± 4.5 | – | – | –
3 | COc1cc(/C=C/C(=O)CC(=O)/C=C/c2ccc(O)c(OC)c2)ccc1O [curcumin, reference compound] | – | – | – | 37.3 ± 1.2 | – | – | –
4 | COC(=O)/C=C/c1ccc(OCCCCN2CCN(CC(=O)Nc3c4c(nc5ccccc35)CCCC4)CC2)c(OC)c1 [Compound 8c, Methyl (E)-3-(3-methoxy-4-(4-(4-(2-oxo-2-((1,2,3,4-tetrahydroacridin-9-yl)amino)ethyl)piperazin-1-yl)butoxy)phenyl)acrylate] | 215 ± 33.7 | 4.087 | 52.7 ± 8.2 | 18.5 ± 4 | – | – | –
5 | COC(=O)/C=C/c1ccc(OCCCCCN2CCN(CC(=O)Nc3c4c(nc5ccccc35)CCCC4)CC2)c(OC)c1 [Compound 8d, Methyl (E)-3-(3-methoxy-4-((5-(4-(2-oxo-2-((1,2,3,4-tetrahydroacridin-9-yl)amino)ethyl)piperazin-1-yl)pentyl)oxy)phenyl)acrylate] | 107 ± 13.1 | 1.733 | 61.7 ± 5.2 | 37.2 ± 0.9 | significant dose-dependent increase in cell viability | complex 8d-Cu^2+ had been produced | mixed-type inhibitors
6 | COc1cc(/C=C/C(=O)O)ccc1O [ferulic acid] | – | – | – | 36.5 ± 3.6 | – | – | –
7 | COC(=O)/C=C/c1ccc(OCCCCCCN2CCN(CC(=O)Nc3c4c(nc5ccccc35)CCCC4)CC2)c(OC)c1 [Compound 8e, Methyl (E)-3-(3-methoxy-4-((6-(4-(2-oxo-2-((1,2,3,4-tetrahydroacridin-9-yl)amino)ethyl)piperazin-1-yl)hexyl)oxy)phenyl)acrylate] | 196 ± 3.5 | 1.059 | 184 ± 15.2 | 35.1 ± 3.2 | – | – | –
